The values below come from ChEMBL document CHEMBL5390251, “Pyrazolidinone-based peptidomimetic SARS-CoV-2 Mpro inhibitors” (Bioorg Med Chem Lett, 2023).

Experiment [1] deals with Replicase polyprotein 1ab (Severe acute respiratory syndrome coronavirus 2) (UniProt P0DTD1). Kind of experiment: Inhibition of SARS-Cov-2 Main protease at <=500 uM by FRET assay.
Experiment [2] deals with Replicase polyprotein 1ab (Severe acute respiratory syndrome coronavirus 2, UniProt P0DTD1). Kind of experiment: Inhibition of SARS-Cov-2 Main protease by FRET assay.
In a further experiment the target is T1, Cathepsin K (Homo sapiens, UniProt P43235).
T1 sequence (P43235 whole entry): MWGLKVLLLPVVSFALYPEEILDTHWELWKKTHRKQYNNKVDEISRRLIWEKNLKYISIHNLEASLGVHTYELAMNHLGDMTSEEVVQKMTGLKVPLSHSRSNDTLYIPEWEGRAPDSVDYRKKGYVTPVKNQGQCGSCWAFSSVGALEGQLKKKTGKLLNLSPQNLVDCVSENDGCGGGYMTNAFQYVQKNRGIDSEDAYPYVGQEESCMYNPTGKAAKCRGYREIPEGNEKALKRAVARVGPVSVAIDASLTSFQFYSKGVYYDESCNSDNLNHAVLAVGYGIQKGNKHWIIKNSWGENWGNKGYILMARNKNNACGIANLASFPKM
Kind of experiment: Inhibition of human Cathepsin K.

Experiment [3] addresses Replicase polyprotein 1ab (Severe acute respiratory syndrome coronavirus 2) (UniProt P0DTD1). The experiment is described as follows: Uncompetitive inhibition of SARS-Cov-2 Main protease by Lineweaver-Burk plot analysis.

pIC50: −log10 of the molar value. Active and inactive are the calls of the source. The rule behind the calls is not given here.

With `N[C@@H]1CONC1=O`, the inhibition result in experiment [1] was “inactive”.

Broadly, the pIC50 is −log10 of the IC50, conventionally taken in molar units. `CN(Cc1ccccc1)C(=O)C1=C(C(=O)O)N2C(=O)[C@@H](NC(=O)[C@H](Cc3ccccc3)NC(=O)c3cc4ccccc4[nH]3)CN2C1` had a pIC50 in experiment [2] of less than 3.30.

Regarding `C[C@@H](O)[C@H]1C(=O)N2C(C(=O)O)=C([C@H]3CCCO3)S[C@H]12`, the inhibition result in experiment [1] is “inactive”. As for `N[C@@H]1C(=O)N2C(C(=O)O)=C(Cl)CS[C@H]12`, the inhibition result in experiment [1] is “inactive”.

As to `C=CCOC(=O)C1=C(C(=O)O)N2C(=O)[C@@H](NC(=O)[C@H](Cc3ccccc3)NC(=O)c3cc4ccccc4[nH]3)CN2C1`, in experiment [2], the pIC50 is 3.72.

With `O=C(N[C@@H](Cc1ccccc1)C(=O)O)c1cc2ccccc2[nH]1`, in experiment [2], the negative logarithm of the IC50 (pIC50) is less than 3.30.

In experiment [2], `C[C@H]1[C@H](NC(=O)[C@H](Cc2ccccc2)NC(=O)c2cc3ccccc3[nH]2)C(=O)N1S(=O)(=O)O` gave a pIC50 of less than 3.30. The compound `CC1(C)S[C@@H]2[C@H](NC(=O)[C@H](Cc3ccccc3)NC(=O)c3cc4ccccc4[nH]3)C(=O)N2[C@H]1C(=O)O` showed a pIC50 in experiment [2] of 3.87. With `C[C@H]1[C@H](N)C(=O)N1S(=O)(=O)O`, the inhibition entry in experiment [1] was “inactive”.

For `O=C(O)C1=C(C(=O)N(Cc2ccccc2)Cc2ccccc2)CN2C[C@H](NC(=O)[C@H](C[C@@H]3CCNC3=O)NC(=O)[C@H](Cc3ccccc3)NC(=O)c3cc4ccccc4[nH]3)C(=O)N12`, in experiment [2], the pIC50 is 3.79. Turning to `CC1(C)S[C@@H]2[C@H](N)C(=O)N2[C@H]1C(=O)O`, the inhibition result in experiment [1] was “inactive”. The same measure, in the same setting: the result for `CC1(C)[C@H](C(=O)O)N2C(=O)C[C@H]2S1(=O)=O` reads “inactive”; that for `C[C@@H](O)[C@H]1C(=O)N2C(C(=O)O)=C(SCCNC=N)C[C@H]12`, “inactive”.

`O=C(O)C1=C(Cl)CS[C@@H]2[C@H](NC(=O)[C@H](Cc3ccccc3)NC(=O)c3cc4ccccc4[nH]3)C(=O)N12` showed a pIC50 in experiment [2] of 4.05. In the case of `NC(=O)[C@@H]1CC[C@@H]2CN1C(=O)N2OS(=O)(=O)O`, the inhibition entry in experiment [1] was “inactive”.

In the case of `CCC1C(=O)N(S(C)(=O)=O)CC1C(=O)OC` (racemic; 11), the inhibition result in experiment [1] is “inactive”.

`N[C@H]1CN2CC(C(=O)N(Cc3ccccc3)Cc3ccccc3)=C(C(=O)O)N2C1=O` gave a pIC50 in experiment [2] of less than 3.30. For the same compound, the inhibition entry in experiment [1] is “inactive”. Turning to `CCC1C(=O)N(S(C)(=O)=O)CC1C(=O)OC` (racemic; 10), the inhibition entry in experiment [1] is “inactive”. As to `O=C(O)C1=C(C(=O)NCc2ccccc2)CN2C[C@H](NC(=O)[C@H](Cc3ccccc3)NC(=O)c3cc4ccccc4[nH]3)C(=O)N12`, the pIC50 in experiment [2] was 3.75. In the case of `O=C(O)C1=C(C(=O)N(Cc2ccccc2)Cc2ccccc2)CN2C[C@H](NC(=O)[C@H](Cc3ccccc3)NC(=O)c3cc4ccccc4[nH]3)C(=O)N12`, the values for the negative-log IC50 (pIC50) (in experiment [2]; at Cathepsin K) were 4.35 and 4.19, respectively. The inhibition result in experiment [3] is “Active”.

The compound `O=C(N[C@@H](Cc1ccccc1)C(=O)N[C@@H]1CONC1=O)c1cc2ccccc2[nH]1` had a pIC50 in experiment [2] of less than 3.30. Still for that read-out and setting: the result for `O=C(O)C1=C(C(=O)N2CCCC2)CN2C[C@H](NC(=O)[C@H](Cc3ccccc3)NC(=O)c3cc4ccccc4[nH]3)C(=O)N12` reads 3.74; that for `CCN(CC)C(=O)C1=C(C(=O)O)N2C(=O)[C@@H](NC(=O)[C@H](Cc3ccccc3)NC(=O)c3cc4ccccc4[nH]3)CN2C1`, 3.55; that for `O=C(O)C1=C(C(=O)NCc2ccncc2)CN2C[C@H](NC(=O)[C@H](Cc3ccccc3)NC(=O)c3cc4ccccc4[nH]3)C(=O)N12`, 3.70.
